Where a SMILES comes first, the peptide text is derived from it. Where no end group is shown, it is not given here. [ ]: non-standard residue; d: D form. Orn = NCCC[C@H](N)C(=O)O
What was measured:
S. aureus DSM 1104 SCV [1] = format: cell-based, Staphylococcus aureus; details: for MIC: S. aureus DSM 1104 SCV, Mueller-Hinton broth, 22 h + 2 h resazurin, 37 °C, 5% CO2, three parallels
Method: For the determination of MIC, the standard broth microdilution procedure[45] was used with a slight modification[29]. Since the peptide stock solutions were prepared in 50% ethanol, the first rows of the 96-well microtiter plates were filled with 50 µl of 2 × concentrated Mueller-Hinton broth to reestablish the normal broth concentration after the addition of 50 µl peptide solutions. The MIC was determined as the lowest concentration that inhibited bacterial growth, judging from bacterial respiration in three parallels for each antibiotic. After incubation of the plates for 22 hours, the redox indicator resazurin (Sigma-Aldrich) was added to the wells (20 µl, 80 µM). The plates were incubated another 2 hours at 37 °C and 5% CO2. Respiration was determined as the difference in the absorption at 570 nm to 600 nm, using a microplate reader FLASHScan 550 (Analytik Jena).

S. aureus MRSA538 SCV = details: Mueller-Hinton broth, 22 h + 2 h resazurin, 37 °C, 5% CO2, three parallels
Method: (§1) For the determination of MIC, the standard broth microdilution procedure[45] was used with a slight modification. Since the peptide stock solutions were prepared in 50% ethanol, the first rows of the 96-well microtiter plates were filled with 50 µl of 2 × concentrated Mueller-Hinton broth to reestablish the normal broth concentration after the addition of 50 µl peptide solutions. The MIC was determined as the lowest concentration that inhibited bacterial growth, judging from bacterial respiration in three parallels for each antibiotic. After incubation of the plates for 22 hours, the redox indicator resazurin (Sigma-Aldrich) was added to the wells (20 µl, 80 µM). The plates were incubated another 2 hours at 37 °C and 5% CO2. Respiration was determined as the difference in the absorption at 570 nm to 600 nm, using a microplate reader FLASHScan 550 (Analytik Jena).

S. aureus MRSA8 SCV [2] = details: Mueller-Hinton broth, 22 h + 2 h resazurin, 37 °C, 5% CO2, three parallels
Method: as §1

S. aureus MRSA9 SCV = details: Mueller-Hinton broth, 22 h + 2 h resazurin, 37 °C, 5% CO2, three parallels
Method: as §1

S. aureus DSM 1104 [3] = format: cell-based, Staphylococcus aureus; details: DSM 1104
Method: (§5) MBC was determined directly after the MIC evaluation. The 10 µl samples of all 8 dilution rows in the microtiter plates were spotted on square Mueller-Hinton agar plates and incubated overnight at 37 °C and 5% CO2. The MBC was determined as the concentration at which no bacterial colonies were obtained on the two parallel spotted plates.

S. aureus DSM 1104 SCV [4] = format: cell-based, Staphylococcus aureus; details: spotted from MIC plates on Mueller-Hinton agar, overnight, no colonies
Method: MBC was determined directly after the MIC evaluation.

S. aureus MRSA3 = format: cell-based, Staphylococcus aureus; details: MRSA3
Method: as §5

S. aureus MRSA4 = format: cell-based, Staphylococcus aureus; details: MRSA4
Method: as §5

S. aureus MRSA9 = format: cell-based, Staphylococcus aureus; details: MRSA9
Method: as §5

E. faecalis DSM 2570 [5] = format: cell-based, Enterococcus faecalis; details: DSM 2570
Method: as §5

E. faecalis WW4 = format: cell-based, Enterococcus faecalis; details: WW4
Method: as §5

E. faecalis WW6 [6] = format: cell-based, Enterococcus faecalis; details: WW6
Method: as §5

E. faecalis TRE1 = format: cell-based, Enterococcus faecalis; details: TRE1
Method: as §5

E. faecalis TRE2 [7] = format: cell-based, Enterococcus faecalis; details: TRE2
Method: as §5

E. faecalis TRE4 = format: cell-based, Enterococcus faecalis; details: TRE4
Method: as §5

E. faecium VRE1 = format: cell-based, Enterococcus faecium; details: VRE1
Method: as §5

E. faecium VRE2 = format: cell-based, Enterococcus faecium; details: VRE2
Method: as §5

S. aureus DSM 1104 SCV [8] = format: cell-based, Staphylococcus aureus; details: value in parentheses
Method: (§2) This parameter quantifies the ability of the peptides to prevent biofilm outgrowth.
(§3) After co-incubation with peptides at 37 °C and 5% CO2 without agitation for 24 hours, the planktonic cells were washed, and Crystal violet staining was applied.

E. faecalis DSM 2570 [9] = details: DSM 2570, 24 h
Method: as §2, §3

E. faecalis TRE2 [10] = details: TRE2, 24 h
Method: as §2, §3

E. faecalis WW6 [11] = details: WW6, 24 h
Method: as §2, §3

S. aureus DSM 1104 [12] = details: DSM 1104, 24 h
Method: as §2, §3

S. aureus MRSA8 SCV [13] = details: value in parentheses
Method: as §2, §3

[14] = biological target: human serum albumin (HSA) (Homo sapiens, UniProt P02768); assay: HSA binding, biomimetic chromatography
Method: (§4) HPLC was performed on an Agilent 1100 system with an ultraviolet diode array detector. […] Binding measurements were performed using Regis Technologies IAM.PC.DD2 (100 × 4.6 mm), HiChrom Chiralpak-HSA (50 × 3 mm) and HiChrom Chiralpak-AGP (50 × 3 mm) columns. […] Retention times were converted to log k and % binding, using calibration routines described in[72].

[15] = system: α1-acid glycoprotein (AGP); assay: AGP binding, biomimetic chromatography
Method: as §4

physchem = assay: physchem
Method: as §4

Danio rerio embryos = assay: Acute toxicity in Danio rerio embryos; format: in vivo; details: zebrafish embryos 72 hpf, E3 medium, heart beat; for 1h LD50: 1 hour exposure; for 3h LD50: 3 hours exposure
Method: Experiments were performed in accordance with the relevant OECD testing guidelines[73] and German animal protection standards. Wild type D. rerio embryos were obtained at the European Zebrafish Resource Center (Karlsruhe). Fertilized eggs (6 hpf) were raised in 4 ml of embryonic medium (E3) at 28 °C until 72 hpf (6-well plate, 20 eggs/well). Embryos were transferred into flat-bottom glass vials (E3, 1 ml, 15–20 embryos/vial). Peptides were added as 20 µl aliquots in 10% dimethyl sulfoxide in serial 2-fold dilutions. Toxicity was expressed as the concentration at which 50% of the embryos were visually observed to die (measured at 1 and 3 hours exposure) by identifying the heart beat.

human erythrocytes = assay: Haemolysis assay; format: cell-based; details: red cells of human
Method: Haemolytic activity was determined with a serial 2-fold dilution assay. Citrate phosphate dextrose-stabilized human erythrocyte suspensions were obtained from Karlsruhe Municipal Hospital. […] The mixture was pelleted (13 000 rpm, 10 min, 4 °C), and the absorbance of the supernatant was recorded at 540 nm vs. reaction buffer. The extent of haemolysis was related to the action of 0.1% Triton X-100 (100%).

enterococci = format: cell-based, Enterococcus faecalis, Enterococcus faecium; details: 22 h
subtilisin = details: serine protease isolated from B. subtilis; cited from earlier work
Description: This intrinsic cell-uptake activity has already been explored in eukaryotic cells to specifically target mitochondria with GS derivatives. In the context of prokaryotic cells, together with the ability to bind certain nucleotides and small phosphorylated molecules[29]–[33], GS thus seems to be capable ...

[16] = system: S. aureus DSM 1104 SCV biofilms; assay: Regrowth from pregrown biofilms on hydroxyapatite discs; format: cell-based, Staphylococcus aureus; details: 30 h on hydroxyapatite discs, 400 µg/ml, 18 h, regrowth 24 h in Todd-Hewitt broth
Method: To characterize the viability of the biofilm cells, HAD with pregrown biofilms were exposed for 18 hours to supra-MBIC90 concentrations of the AMP, and - after washing - were placed into fresh TH broth. This procedure serves to determine possible planktonic regrowth from the cells that survived the treatment.
Biofilms were grown on standardized hydroxyapatite discs (3D Biotek). The discs were placed in 24-well microtiter plates and inoculated with a cell suspension from the overnight stationary culture, grown in Todd-Hewitt broth and diluted to OD550 = 0.2. After 30 hours of growth at 37 °C without agitation, the discs were placed for 18 hours in solutions containing 400 µg/ml of peptides, dissolved in 10% dimethyl sulfoxide and 150 mM sodium phosphate buffer (pH 7.2). For the control experiments and conventional antibiotics, pure sodium phosphate buffer was used. After the treatment, discs were washed with sodium phosphate buffer, placed into 1 ml of Todd-Hewitt broth and incubated at 37 °C with agitation at 200 rpm for 24 hours.

Chain of human serum albumin (HSA) (P02768 25-609): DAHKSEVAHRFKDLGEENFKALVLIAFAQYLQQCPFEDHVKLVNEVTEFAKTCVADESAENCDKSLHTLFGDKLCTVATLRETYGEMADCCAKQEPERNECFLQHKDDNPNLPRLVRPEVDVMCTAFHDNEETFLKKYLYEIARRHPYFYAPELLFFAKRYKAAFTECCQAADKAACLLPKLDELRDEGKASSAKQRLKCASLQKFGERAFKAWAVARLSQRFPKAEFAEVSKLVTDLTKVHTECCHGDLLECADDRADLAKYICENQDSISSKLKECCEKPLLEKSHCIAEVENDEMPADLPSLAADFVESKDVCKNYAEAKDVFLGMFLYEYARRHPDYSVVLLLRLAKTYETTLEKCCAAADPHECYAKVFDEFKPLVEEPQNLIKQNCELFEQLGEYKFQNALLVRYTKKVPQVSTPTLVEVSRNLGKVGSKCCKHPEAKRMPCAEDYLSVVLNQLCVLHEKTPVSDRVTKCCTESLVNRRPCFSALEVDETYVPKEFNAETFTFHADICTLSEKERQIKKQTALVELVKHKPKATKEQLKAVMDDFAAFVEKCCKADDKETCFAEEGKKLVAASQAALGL

Compound | MIC (S. aureus DSM 1104 SCV [1]) | MIC (S. aureus MRSA8 SCV [2]) | MIC (S. aureus MRSA9 SCV) | MBC (S. aureus DSM 1104 [3]) | MBC (S. aureus MRSA3) | MBC (S. aureus MRSA4) | MBC (S. aureus MRSA9) | MBC (E. faecalis DSM 2570 [5]) | MBC (E. faecalis WW4) | MBC (E. faecalis WW6 [6]) | MBC (E. faecalis TRE1) | MBC (E. faecalis TRE2 [7]) | MBC (E. faecalis TRE4) | MBC (E. faecium VRE1) | MBC (E. faecium VRE2) | MBIC90 (S. aureus DSM 1104 SCV [8]) [µM] | MBIC90 (E. faecalis DSM 2570 [9]) [µM] | MBIC90 (E. faecalis TRE2 [10]) [µM] | MBIC90 (E. faecalis WW6 [11]) [µM] | MBIC90 (S. aureus DSM 1104 [12]) [µM] | further results
CC(C)C[C@@H]1NC(=O)[C@H](CCCN)NC(=O)[C@H](C(C)C)NC(=O)[C@@H]2CCCN2C(=O)[C@@H](Cc2ccccc2)NC(=O)[C@H](CC(C)C)NC(=O)[C@H](CCCN)NC(=O)[C@H](C(C)C)NC(=O)[C@@H]2CCCN2C(=O)[C@@H](Cc2ccccc2)NC1=O [GS, gramicidin S] (cyclo(V[Orn]L[dF]PV[Orn]L[dF]P)) | 4 (4) µg/ml | 4 (4) µg/ml | 4 (4) µg/ml | 8 (7) µg/ml | 16 (14) µg/ml | 16 (14) µg/ml | 16 (14) µg/ml | 8 (7) µg/ml | 16 (14) µg/ml | 16 (14) µg/ml | 16 (14) µg/ml | 16 (14) µg/ml | 8 (7) µg/ml | 8 (7) µg/ml | 8 (7) µg/ml | 14 | 7 | 14 | 14 | 4 | MIC (S. aureus MRSA538 SCV): 8 (7) µg/ml; MBC (S. aureus DSM 1104 SCV [4]): 8 (7) µg/ml; MBIC90 (S. aureus MRSA8 SCV [13]): 4 µM; Bound HSA ([14]; Chiralpak-HSA column, 50 mM ammonium acetate pH 7.4, 0–35% 2-propanol gradient, calibrated retention times, UV): 97.45%; log k HSA ([14]; Chiralpak-HSA column, pH 7.4, 0–35% 2-propanol gradient, value in parentheses): 1.44; Bound AGP ([15]; Chiralpak-AGP column, 50 mM ammonium acetate pH 7.4, 0–35% 2-propanol gradient, calibrated retention times, UV): 92.92%; log k AGP ([15]; Chiralpak-AGP column, pH 7.4, 0–35% 2-propanol gradient, value in parentheses): 1.06; chromatographic logD (physchem; pH 2.6): 1.5; chromatographic logD (physchem; pH 7.4): 3.51; chromatographic logD (physchem; pH 10.5): 7.52; 1h LD50 (Danio rerio embryos): 8 µg/mL; 3h LD50 (Danio rerio embryos): 5 µg/mL; Haemolysis at 5 μM (human erythrocytes): 7%; Haemolysis at 10 μM (human erythrocytes): 54%; MIC against enterococci (enterococci): approximately 8 µg/ml; Degradation by protease (subtilisin): effective in degrading
Cc1onc(-c2ccccc2)c1C(=O)N[C@@H]1C(=O)N2[C@@H]1SC(C)(C)[C@@H]2C(=O)O [OXA, oxacillin] |  |  |  |  |  |  |  |  |  |  |  |  |  |  |  |  |  |  |  |  | Concentration effective against the planktonic cells (SI Table S1) (S. aureus DSM 1104 SCV [1]; DSM 1104 SCV planktonic cells, standard broth microdilution): 0.25 µg/mL; Biofilm regrowth after treatment [16]: tolerant
FVQWFSKFLGRIL-NH2 [TL, temporin L] | 8 (5) µg/ml | 8 (5) µg/ml | 8 (5) µg/ml | 16 (10) µg/ml | 32 (20) µg/ml | 32 (20) µg/ml | 32 (20) µg/ml | 16 (10) µg/ml | 32 (20) µg/ml | 32 (20) µg/ml | 32 (20) µg/ml | 32 (20) µg/ml | 32 (20) µg/ml | 16 (10) µg/ml | 16 (10) µg/ml | 20 | 39 | 78 | 78 | 5 | MBIC90 (S. aureus MRSA8 SCV [13]): 5 µM; log k HSA ([14]; pH 7.4): 1.68; log k AGP ([15]; pH 7.4): 1.23; chromatographic logD (physchem; pH 2.6): 0.65; chromatographic logD (physchem; pH 7.4): 2.92; chromatographic logD (physchem; pH 10.5): 4.95; 1h LD50 (Danio rerio embryos): 7 µg/mL; 3h LD50 (Danio rerio embryos): 7 µg/mL; Haemolysis at 5 μM (human erythrocytes): 57%; Haemolysis at 10 μM (human erythrocytes): 99%
